Experimental data: ChEMBL document CHEMBL3421629, “Pyrazole phenylcyclohexylcarbamates as inhibitors of human fatty acid amide hydrolases (FAAH)” (Eur J Med Chem, 2015)
pIC50: −log10 of the molar value.

Key:
[1] = biological target: T1, Fatty-acid amide hydrolase 1 (Homo sapiens, UniProt O00519); experiment: Inhibition of human recombinant FAAH using AMC arachidonoyl amide as substrate after 30 mins by fluorescence assay
T1 sequence (O00519 whole entry): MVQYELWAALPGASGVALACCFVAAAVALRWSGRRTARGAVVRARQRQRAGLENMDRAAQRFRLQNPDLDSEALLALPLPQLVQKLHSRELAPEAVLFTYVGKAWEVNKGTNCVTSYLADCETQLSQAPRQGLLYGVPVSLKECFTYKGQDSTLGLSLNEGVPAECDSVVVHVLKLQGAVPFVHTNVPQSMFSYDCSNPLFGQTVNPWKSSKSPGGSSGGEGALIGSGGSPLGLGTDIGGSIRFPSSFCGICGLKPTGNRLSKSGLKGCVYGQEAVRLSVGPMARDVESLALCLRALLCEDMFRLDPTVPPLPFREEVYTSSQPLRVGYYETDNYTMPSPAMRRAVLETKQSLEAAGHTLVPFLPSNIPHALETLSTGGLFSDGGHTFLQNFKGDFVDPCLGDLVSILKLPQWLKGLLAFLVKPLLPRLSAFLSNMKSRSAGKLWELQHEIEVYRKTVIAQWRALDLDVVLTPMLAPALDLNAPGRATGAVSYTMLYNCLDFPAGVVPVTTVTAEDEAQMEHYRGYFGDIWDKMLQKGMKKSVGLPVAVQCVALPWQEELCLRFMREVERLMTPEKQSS

Monoglyceride lipase = biological target: T2, Monoglyceride lipase (Homo sapiens, UniProt Q99685); experiment: Inhibition of human recombinant MAGL using 4-nitrophenylacetate as substrate after 30 mins
T2 sequence (Q99685 whole entry): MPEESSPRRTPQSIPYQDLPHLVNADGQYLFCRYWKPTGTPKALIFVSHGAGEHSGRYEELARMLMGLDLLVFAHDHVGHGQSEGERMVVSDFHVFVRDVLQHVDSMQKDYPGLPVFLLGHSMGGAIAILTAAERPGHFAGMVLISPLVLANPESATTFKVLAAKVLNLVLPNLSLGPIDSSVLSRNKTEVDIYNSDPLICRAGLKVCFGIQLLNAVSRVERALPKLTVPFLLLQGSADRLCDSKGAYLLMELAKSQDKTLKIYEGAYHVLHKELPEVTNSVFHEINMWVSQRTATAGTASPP

Homo sapiens = species on record: Homo sapiens; experiment: Selectivity index, ratio of IC50 for human recombinant MAGL to IC50 for human recombinant FAAH
[2] = biological target: T1, Fatty-acid amide hydrolase 1; experiment: Inhibition of human recombinant FAAH using AMC arachidonoyl amide as substrate preincubated with protein for 0 min followed by substrate addition by fluorescence assay
[3] = biological target: T1, Fatty-acid amide hydrolase 1; experiment: Inhibition of human recombinant FAAH using AMC arachidonoyl amide as substrate preincubated with protein for 30 mins followed by substrate addition by fluorescence assay
[4] = biological target: T1, Fatty-acid amide hydrolase 1; experiment: Inhibition of human recombinant FAAH using AMC arachidonoyl amide as substrate preincubated with protein for 60 mins followed by substrate addition by fluorescence assay

pIC50 [1]	SMILES	further results
7.11	CCOC(=O)c1cc(-c2cccc(OC(=O)NC3CCCCC3)c2)n(-c2ccc([N+](=O)[O-])cc2)n1	
6.27	CCOC(=O)c1cc(-c2cccc(OC(=O)NC3CCCCC3)c2)nn1-c1ccccc1	
6.63	CC(C)NC(=O)c1cc(-c2cccc(OC(=O)NC3CCCCC3)c2)n(-c2ccccc2)n1	
6.39	CCOC(=O)c1cc(-c2cccc(OC(=O)NC3CCCCC3)c2)nn1-c1ccc(OC)cc1	
6.77	NC(=O)c1cc(-c2cccc(OC(=O)NC3CCCCC3)c2)n(-c2ccccc2)n1	
7.06	CCCCCCNC(=O)Oc1cccc(-c2cc(C(=O)OCC)nn2-c2ccccc2)c1	
6.23	CCOC(=O)c1cc(-c2ccc(OC(=O)NC3CCCCC3)cc2)nn1-c1ccccc1	
6.57	CCOC(=O)c1cc(-c2ccc(OC(=O)NC3CCCCC3)cc2)n(-c2ccccc2)n1	
6.55	CCOC(=O)c1cc(-c2ccc(OC(=O)NC3CCCCC3)cc2)n(-c2ccc(Cl)cc2)n1	
6.80	CCOC(=O)c1cc(-c2ccc(OC(=O)NC3CCCCC3)cc2)nn1-c1ccc(OC)cc1	
6.23	CCOC(=O)c1cc(-c2ccc(OC(=O)NC3CCCCC3)cc2)nn1-c1ccc(Cl)cc1	
6.45	CCOC(=O)c1cc(-c2cccc(OC(=O)NC3CCCCC3)c2)nn1-c1ccc(Cl)cc1	
6.35	CCN(CC)C(=O)c1cc(-c2cccc(OC(=O)NC3CCCCC3)c2)n(-c2ccccc2)n1	
7.85	COc1nn(-c2ccc(NC(=O)OCc3ccccc3)c(C)c2)c(=O)o1	pIC50 [2]: 7.89; pIC50 [3]: 8.46; pIC50 [4]: 8.72
7.15	NC(=O)c1cc(-c2ccc(OC(=O)NC3CCCCC3)cc2)n(-c2ccccc2)n1	
6.13	COc1ccc(-n2nc(C(N)=O)cc2-c2cccc(OC(=O)NC3CCCCC3)c2)cc1	
6.34	O=C(NC1CCCCC1)Oc1cccc(-c2cc(CO)nn2-c2ccccc2)c1	
5.64	O=C(NC1CCCCC1)Oc1cccc(-c2cc(C(=O)O)nn2-c2ccccc2)c1	
6.99	CCOC(=O)c1cc(-c2cccc(OC(=O)NC3CCCCC3)c2)n(-c2ccc(OC)cc2)n1	
7.00	CCCCCCNC(=O)Oc1cccc(-c2cc(C(=O)OCCC)nn2-c2ccccc2)c1	
7.15	CCOC(=O)c1cc(-c2cccc(OC(=O)NC3CCCCC3)c2)n(Cc2ccccc2)n1	
6.88	CCOC(=O)c1cc(-c2cccc(OC(=O)NC3CCCCC3)c2)n(-c2ccc(C(F)(F)F)cc2)n1	

Continued, molecule first:

SMILES	pIC50 [1]	further results
Cn1nc(C(N)=O)cc1-c1ccc(OC(=O)NC2CCCCC2)cc1	6.68	
CCOC(=O)c1cc(-c2cccc(OC(=O)NC3CCCCC3)c2)n(C)n1	6.52	
CCOC(=O)c1cc(-c2ccc(OC(=O)NC3CCCCC3)cc2)n(C)n1	7.09	
CCOC(=O)c1cc(-c2cccc(OC(=O)NC3CCCCC3)c2)n(-c2ccccc2)n1	7.96	pIC50 (Monoglyceride lipase): 4.68; Ratio IC50 (Homo sapiens): 1840
CCOC(=O)c1cc(-c2cccc(OC(=O)NC3CCCCC3)c2)n(-c2ccc(C)cc2)n1	7.54	pIC50 (Monoglyceride lipase): 4.47; Ratio IC50 (Homo sapiens): 1190
CCOC(=O)c1cc(-c2ccc(OC(=O)NC3CCCCC3)cc2)nn1C	6.50	
CCOC(=O)c1cc(-c2cccc(OC(=O)NC3CCCCC3)c2)n(CC)n1	7.00	
O=C(NC1CCCCC1)Oc1cccc(-c2cc(C(=O)NC3CCCCC3)nn2-c2ccccc2)c1	6.54	
CCOC(=O)c1cc(-c2cccc(OC(=O)NC3CCCCC3)c2)nn1CC	6.29	
CCOC(=O)c1cc(-c2ccc(OC(=O)NC3CCCCC3)cc2)nn1CC	6.22	
CCOC(=O)c1cc(-c2cccc(OC(=O)NC3CCCCC3)c2)n(-c2ccc(Cl)cc2Cl)n1	6.91	
CCOC(=O)c1cc(-c2cccc(OC(=O)NC3CCCCC3)c2)nn1C	6.64	
CCCOC(=O)c1cc(-c2cccc(OC(=O)NC3CCCCC3)c2)n(-c2ccccc2)n1	7.57	pIC50 (Monoglyceride lipase): 4.42; Ratio IC50 (Homo sapiens): 1380
NC(=O)c1cc(-c2ccc(OC(=O)NC3CCCCC3)cc2)n(-c2ccc(Cl)cc2)n1	6.76	
CCOC(=O)c1cc(-c2ccc(OC(=O)NC3CCCCC3)cc2)n(CC)n1	6.67	
CCOC(=O)c1cc(-c2cccc(OC(=O)NC3CCCCC3)c2)n(-c2ccc(Cl)cc2)n1	7.77	pIC50 (Monoglyceride lipase): 4.08; Ratio IC50 (Homo sapiens): 4900; pIC50 [2]: 7.82; pIC50 [3]: 7.77; pIC50 [4]: 7.74
COC(=O)c1cc(-c2cccc(OC(=O)NC3CCCCC3)c2)n(-c2ccccc2)n1	7.74	pIC50 (Monoglyceride lipase): 4.31; Ratio IC50 (Homo sapiens): 2750
NC(=O)c1cc(-c2cccc(OC(=O)NC3CCCCC3)c2)n(-c2ccc(Cl)cc2)n1	6.76	
